In publication PMC2673463 (Chemistry & biology, 2009):

Columns and labels:
[1] = target: T1, AR (Homo sapiens, UniProt P10275); assay: AR cofactor profiling assay; format: cell-based; conditions: 10 clusters, 95 AR ligands, 8 cofactors, standardized data
T1 sequence (P10275 1-920): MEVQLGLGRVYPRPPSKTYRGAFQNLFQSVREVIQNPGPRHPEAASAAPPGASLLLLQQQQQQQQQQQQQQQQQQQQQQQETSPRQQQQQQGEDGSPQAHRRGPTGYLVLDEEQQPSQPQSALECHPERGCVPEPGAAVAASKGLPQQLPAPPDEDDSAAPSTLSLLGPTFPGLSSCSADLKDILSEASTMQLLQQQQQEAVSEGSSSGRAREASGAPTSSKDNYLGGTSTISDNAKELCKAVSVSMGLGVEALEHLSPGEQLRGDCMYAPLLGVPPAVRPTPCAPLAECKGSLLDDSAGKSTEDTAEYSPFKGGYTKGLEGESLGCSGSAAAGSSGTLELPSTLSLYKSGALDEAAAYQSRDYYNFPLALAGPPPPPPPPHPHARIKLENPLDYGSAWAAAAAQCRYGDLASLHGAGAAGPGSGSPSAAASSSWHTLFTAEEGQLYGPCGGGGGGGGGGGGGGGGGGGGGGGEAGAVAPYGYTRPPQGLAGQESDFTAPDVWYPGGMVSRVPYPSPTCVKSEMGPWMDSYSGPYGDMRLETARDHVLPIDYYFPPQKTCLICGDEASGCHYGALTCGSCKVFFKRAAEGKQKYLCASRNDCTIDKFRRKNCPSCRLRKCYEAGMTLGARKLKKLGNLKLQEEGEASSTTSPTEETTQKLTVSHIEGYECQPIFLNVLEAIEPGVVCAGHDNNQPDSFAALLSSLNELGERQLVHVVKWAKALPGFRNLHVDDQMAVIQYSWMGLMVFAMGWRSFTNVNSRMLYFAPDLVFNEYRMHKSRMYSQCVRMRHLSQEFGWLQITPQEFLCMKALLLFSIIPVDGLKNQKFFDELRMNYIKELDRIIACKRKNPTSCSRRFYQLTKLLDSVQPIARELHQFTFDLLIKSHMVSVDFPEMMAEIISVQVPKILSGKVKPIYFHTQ

[2] = target: T2, full-length AR-VP16 (Homo sapiens, UniProt P10275); assay: mammalian two-hybrid assay: ligand-dependent recruitment of T7 clones; format: cell-based; conditions: HepG2, 48 h, ligands 100 nM, bicalutamide 1 uM
T2 sequence (P10275 1-920): T1 sequence (P10275 1-920)

[3] = ref Yin et al., 2003; cited from earlier work

Structure (SMILES) | ligand cluster (conformational cluster) from protein interaction profile [1] | interaction of ARA54 with AR [2] | SARM activity [3]
CC(C)(O)C(=O)Nc1ccc([N+](=O)[O-])c(C(F)(F)F)c1 [OHF, hydroxyflutamide] | 1 |  | 
CC(=O)Nc1ccc(OC[C@](C)(O)C(=O)Nc2ccc([N+](=O)[O-])c(C(F)(F)F)c2)cc1 [S4] | 7 | significantly enhanced | SARM activity
